Measurements: patent US8808702B2, “Sulfide, sulfoxide and sulfone chalcone analogues, derivatives thereof and therapeutic uses thereof” (Temple University-of the Commonwealth System of Higher …, priority 2006, dated 2014)
pIC50: −log10 of the molar value. Read-outs that look alike come from different tables or passages of the source.

Legend:
[1] = test system: K562 (chronic myelogenous leukaemia); test: Effect of compounds on tumor cell lines (assay of Latham et al.), K562; format: cell-based; conditions: Homo sapiens, Table 4, K562 cells, examined 96 hours after treatment, 1 μM to 100 μM in DMSO
Summary of the method: (§1)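 After 96 h of exposure to compound (1–100 μM in DMSO; one compound at 0.1–100 μM), effects were scored by inverted-microscope inspection, with trypan blue viable counts by hemacytometer when required. Cells were seeded at 2.5×10^4 per well and dosed 24 h after plating.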

DU145 (prostate cancer) = test: Effect of compounds on tumor cell lines (assay of Latham et al.), DU145; format: cell-based; conditions: Homo sapiens, DU-145, Table 4, DU145 cells, examined 96 hours after treatment, 1 μM to 100 μM in DMSO
Summary of the method: as §1

[2] = read-out: DU 145 potency (IC50)
[3] = read-out: K 562 potency (IC50), given as number

| Compound | pIC50 ([1]; read-out: K 562 potency (IC50)) | pIC50 (DU145 (prostate cancer); [2]) | melting point [°C] | pIC50 [1, 3] | pIC50 (DU145 (prostate cancer); read-out: DU 145 potency (IC50), given as number) |
| --- | --- | --- | --- | --- | --- |
| Cc1cc(C)cc(/C=C(\C(=O)c2ccc(Br)cc2)S(=O)(=O)Cc2ccc(F)cc2)c1 [Example 405] | 4.60 to 5.00 | 4.60 to 5.00 | 140 to 143 | – | – |
| O=C(/C(=C\c1ccc(-c2ccccc2)cc1)S(=O)(=O)Cc1ccc(Cl)cc1)c1ccc(Cl)cc1 [Example 398] | 4.30 to 4.60 | 4.30 to 4.60 | 65 to 72 | – | – |
| O=C(/C(=C\c1ccc(Br)cc1)S(=O)(=O)Cc1ccc(I)cc1)c1ccc(Br)cc1 [Example 418] | – | – | 168 to 170 | < 4.30 | < 4.30 |
| Cc1ccc(CS(=O)(=O)/C(=C/c2ccc(Cl)cc2)C(=O)c2ccc(Cl)cc2)cc1 [Example 434] | 4.30 to 4.60 | 4.30 to 4.60 | 128 to 133 | – | – |
| Cc1ccc(CS(=O)(=O)/C(=C/c2c(O)cc(O)cc2O)C(=O)c2ccc(Cl)cc2)cc1 [Example 424] | < 4.00 | < 4.00 | 167 to 180 | – | – |
| O=C(/C(=C\c1cc(Cl)cc(Cl)c1Cl)S(=O)(=O)Cc1ccc(Cl)cc1)c1ccc(Br)cc1 [Example 376] | 5.00 to 6.00 | 5.00 to 6.00 | 181 to 188 | – | – |
| O=C(/C(=C\c1ccc(O)c([N+](=O)[O-])c1)S(=O)(=O)Cc1ccc(Br)cc1)c1ccc(Br)cc1 [Example 374] | 5.00 to 6.00 | 4.60 to 5.00 | 110 to 112 | – | – |
| Cc1ccc(CS(=O)(=O)/C(=C/c2ccc(S(C)(=O)=O)cc2)C(=O)c2ccc(Br)cc2)cc1 [Example 438] | 5.00 to 6.00 | 4.60 to 5.00 | 110 to 112 | – | – |
| O=C(/C(=C\c1ccccc1OCc1ccccc1)S(=O)(=O)Cc1ccccc1Cl)c1ccc(Cl)cc1 [Example 358] | 5.00 to 6.00 | 5.00 to 6.00 | 137 to 148 | – | – |
| COc1cc(OC)c(/C=C(\C(=O)c2ccc(Br)cc2)S(=O)(=O)Cc2ccc(F)cc2)c(OC)c1 [Example 399] | 4.00 to 4.30 | 4.00 to 4.30 | 176 to 182 | – | – |
| O=C(/C(=C\c1ccc(I)cc1)S(=O)(=O)Cc1ccc(I)cc1)c1ccc(I)cc1 [Example 421, (E)-1-(4-iodophenyl)-2-(4-iodobenzylsulfonyl)-3-(4-iodophenyl)-prop-2-en-1-one] | – | 4.30 to 4.60 | 175 to 177 | < 4.30 | – |
| CCOc1cc(/C=C(\C(=O)c2ccc(Cl)cc2)S(=O)(=O)Cc2ccc(Cl)cc2)ccc1O [Example 386] | 4.60 to 5.00 | 4.60 to 5.00 | 134 to 139 | – | – |
| Cc1ccc(CS(=O)(=O)/C(=C/c2ccc(C)s2)C(=O)c2ccc(Cl)cc2)cc1 [Example 440] | 4.30 to 4.60 | 4.30 to 4.60 | 171 to 178 | – | – |
| O=C(/C(=C\c1c[nH]c2ccccc12)S(=O)(=O)Cc1ccc(F)cc1)c1ccc(Cl)cc1 [Example 406] | 4.00 to 4.30 | 4.00 to 4.30 | > 200 | – | – |
| O=C(/C(=C\c1ccc(Br)cc1)S(=O)(=O)Cc1ccc(I)cc1)c1ccc(I)cc1 [Example 419, (E)-1-(4-Iodophenyl)-2-(4-iodobenzylsulfonyl)-3-(4-bromophenyl)prop-2-en-1-one] | 4.30 to 4.60 | 4.30 to 4.60 | 180 to 182 | – | – |
| Cc1cc(C)cc(/C=C(\C(=O)c2ccc(Cl)cc2)S(=O)(=O)Cc2ccc(Cl)cc2)c1 [Example 385] | 5.00 to 6.00 | 5.00 to 6.00 | 146 to 152 | – | – |
| O=C(/C(=C\c1ccc(I)cc1)S(=O)(=O)Cc1ccc(I)cc1)c1ccc(Br)cc1 [Example 420, (E)-1-(4-bromophenyl)-2-(4-iodobenzylsulfonyl)-3-(4-iodophenyl)-prop-2-en-1-one] | – | 4.30 to 4.60 | 160 to 162 | < 4.30 | – |
| Cc1ccc(CS(=O)(=O)/C(=C/c2ccc(Br)cc2)C(=O)c2ccc(Cl)cc2)cc1 [Example 433] | 4.60 to 5.00 | 4.30 to 4.60 | 160 to 165 | – | – |
| COc1ccc(C(=O)/C(=C\c2ccc(Br)cc2)S(=O)(=O)Cc2ccc(Br)cc2)cc1 [Example 371] | 5.00 to 6.00 | 5.00 to 6.00 | 146 to 148 | – | – |
| Cc1ccc(C)c(/C=C(\C(=O)c2ccc(Br)cc2)S(=O)(=O)Cc2ccc(F)cc2)c1 [Example 401] | 5.00 to 6.00 | 5.00 to 6.00 | 167 to 173 | – | – |
| CSc1ccc(/C=C(\C(=O)c2ccc(Cl)cc2)S(=O)(=O)Cc2ccc(C)cc2)cc1 [Example 437] | 4.30 to 4.60 | 4.60 to 5.00 | 140 to 152 | – | – |
